From patent publication US20100130737A1, “Regulating Agent of GPR34 Receptor Function” (TAKEDA PHARMACEUTICAL COMPANY LIMITED, priority 2005, published 2010) come the findings set out here.

A word on the melting point: it is the temperature of the solid-liquid transition. As for `Cc1ccc(COc2ccc(C[C@H](NC(=O)c3cc4cc(C#Cc5ccccc5)ccc4s3)C(=O)O)cc2)cc1` [Example C140, O-(4-Methylbenzyl)-N-{[5-(phenylethynyl)-1-benzothiophene-2-yl]carbonyl}tyrosine], the melting point lay within 204 to 207 °C. In the case of `O=C(NC(Cc1ccc(OCc2ccc(Cl)cc2)cc1)C(=O)O)c1cc2cc(C#Cc3ccccc3)ccc2s1` (stereo not shown) [Example C141, O-(4-Chlorolbenzyl)-N-{[5-(phenylethynyl)-1-benzothiophene-2-yl]carbonyl)tyrosine] it was 216 to 221 °C.

For `Nc1c(C(=O)NC(Cc2ccc(OCc3ccccc3)cc2)C(=O)O)oc2ccc(-c3ccc(Cl)cc3)cc12` (stereo not shown) [Example C149], the melting point amounted to 250 °C.

`Cc1c(C(=O)N[C@@H](Cc2ccc(OCc3ccoc3)cc2)C(=O)O)oc2ccc(-c3ccc(Cl)cc3)cc12` [Example C150, N-{[5-(4-Chlorophenyl)-3-methyl-1-benzofuran-2-yl]carbonyl}-O-(3-furylmethyl)tyrosine] gave a melting point of 196 to 197 °C.

`O=C(N[C@@H](Cc1ccc(OCc2ccoc2)cc1)C(=O)O)c1cc2ccc(-c3ccc(Cl)cc3)cc2o1` [Example C151, N-{[6-(4-Chlorophenyl)-1-benzofuran-2-yl]carbonyl}-O-(3-furylmethyl)tyrosine]: the melting point lay in the range of 159 to 160 °C.

Take `O=C(N[C@@H](Cc1ccc(OCc2ccoc2)cc1)C(=O)O)c1cc2cc(-c3ccc(Cl)cc3)ccc2o1` [Example C152, N-{[5-(4-Chlorophenyl)-1-benzofuran-2-yl]carbonyl}-O-(3-furylmethyl)tyrosine]: the melting point is 211 to 212 °C.

With `Cc1cccc(COc2ccc(C[C@H](NC(=O)c3cc4ccc(-c5ccc(Cl)cc5)cc4o3)C(=O)O)cc2)c1` [Example C154, N-{[6-(4-Chlorophenyl)-1-benzofuran-2-yl]carbonyl}-O-(3-methylbenzyl)tyrosine], the melting point lay in the range of 157 to 158 °C. For the compound `COc1cccc(COc2ccc(C[C@H](NC(=O)c3cc4ccc(-c5ccc(Cl)cc5)cc4o3)C(=O)O)cc2)c1` [Example C155, N-{[6-(4-Chlorophenyl)-1-benzofuran-2-yl]carbonyl}-O-(3-methoxybenzyl)tyrosine], the melting point is 150 to 151 °C. Next, `Cc1c(C(=O)N[C@H](C(=O)O)c2ccc(OCc3ccccc3)cc2)oc2cc(-c3ccc(Cl)cc3)ccc12` [Example C156, (2S)-[4-(Benzyloxy)phenyl]({[6-(4-chlorophenyl)-3-methyl-1-benzofuran-2-yl]carbonyl}amino)acetic acid]: 178 °C. Turning to `Cc1ccc(COc2ccc(CC(NC(=O)c3cc4ccc(-c5ccc(Cl)cc5)cc4o3)C(=O)O)cc2)cc1` (stereo not shown) [Example C158], the melting point was 204 °C. `O=C(N[C@@H](Cc1ccc(OCc2ccc(Cl)cc2)cc1)C(=O)O)c1cc2ccc(-c3ccc(Cl)cc3)cc2o1` [Example C159, O-(4-Chlorobenzyl)-N-{[6-(4-chlorophenyl)-1-benzofuran-2-yl]carbonyl}tyrosine] yielded a melting point of 195 °C. Next, `N#Cc1ccc(COc2ccc(C[C@H](NC(=O)c3cc4ccc(-c5ccc(Cl)cc5)cc4o3)C(=O)O)cc2)cc1` [Example C160, N-{[6-(4-Chlorophenyl)-1-benzofuran-2-yl]carbonyl}-O-(4-cyanobenzyl)tyrosine]: 204 °C; `CCc1ccc(COc2ccc(C[C@H](NC(=O)c3cc4ccc(-c5ccc(Cl)cc5)cc4o3)C(=O)O)cc2)cc1` [Example C161, N-{[6-(4-Chlorophenyl)-1-benzofuran-2-yl]carbonyl)-O-(4-ethylbenzyl)tyrosine]: 194 °C. Next, `O=C(NC(Cc1ccc(OCc2ccc(C(F)(F)F)cc2)cc1)C(=O)O)c1cc2ccc(-c3ccc(Cl)cc3)cc2o1` (stereo not shown) [Example C162]: 203 °C; `O=C(NC(Cc1ccc(OCc2ccc(F)cc2)cc1)C(=O)O)c1nc2ccc(-c3ccc(Cl)cc3)cc2[nH]1` (stereo not shown) [Example C168]: 258 to 259 °C. In the case of `O=C(/C=C/c1cccc(-c2ccc(Cl)cc2)n1)NC(Cc1ccc(OCc2ccccc2)cc1)C(=O)O` (stereo not shown) [Example D3, O-Benzyl-N-{3-[6-(4-chlorophenyl)pyridin-2-yl]acryloyl}tyrosine] it was 226 to 228 °C; in that of `O=C(/C=C/c1ccc(-c2ccc(Cl)cc2)o1)N[C@@H](Cc1ccc(OCc2ccccc2)cc1)C(=O)O` [Example D4, O-Benzyl-N-{(2E)-3-[5-(4-chlorophenyl)-2-furyl]propa-2-enoyl}tyrosine], 224 to 225 °C. On to `O=C(N[C@@H](Cc1ccc(OCc2ccsc2)cc1)C(=O)O)c1cn2cc(-c3ccc(Cl)cc3)ccc2n1` [Example E2, N-{[6-(4-Chlorophenyl)imidazo[1,2-a]pyridin-2-yl]carbonyl}-O-(3-thienylmethyl)-L-tyrosine], for which the melting point was 203 °C. Next, `O=C(N[C@@H](Cc1ccc(OCc2ccccc2)cc1)C(=O)O)c1cn2cc(-c3ccc(Cl)cc3)cnc2n1` [Example E4, O-Benzyl-N-{[6-(4-chlorophenyl)imidazo[1,2-a]pyrimidin-2-yl]carbonyl}tyrosine]: 252 to 253 °C; `O=C(NC(Cc1ccc(OCc2ccccc2F)cc1)C(=O)O)c1cn2cc(-c3ccc(Cl)cc3)ccc2n1` (stereo not shown) [Example E6]: 273 °C; `O=C(NC(Cc1ccc(OCc2ccc(F)cc2)cc1)C(=O)O)c1cn2cc(-c3ccc(Cl)cc3)ccc2n1` (stereo not shown) [Example E7]: 267 °C. As for `O=C(N[C@@H](Cc1ccc(OCc2ccccc2)cc1)C(=O)O)c1cn2ccc(-c3ccc(Cl)cc3)cc2n1` [Example E8, O-Benzyl-N-{[7-(4-chlorophenyl)imidazo[1,2-a]pyridin-2-yl]carbonyl}tyrosine], the melting point was 255 °C. `O=C(NC(Cc1ccc(OCc2cccc(F)c2)cc1)C(=O)O)c1cn2cc(-c3ccc(Cl)cc3)ccc2n1` (stereo not shown) [Example E10] registered a melting point of 252 °C.

The compound `O=C(N[C@@H](Cc1ccc(F)cc1)C(=O)O)c1cn2cc(-c3ccc(Cl)cc3)ccc2n1` [Example E11, N-{[6-(4-Chlorophenyl)imidazo[1,2-a]pyridin-2-yl]carbonyl}-4-fluorophenylalanine] showed a melting point of 266 °C.

In turn, `O=C(O)CN(Cc1ccc(OCc2ccc(F)cc2)cc1)C(=O)c1cn2cc(-c3ccc(Cl)cc3)ccc2n1` [Example E13, N-{[6-(4-Chlorophenyl)imidazo[1,2-a]pyridin-2-yl]carbonyl}-N-{4-[(4-fluorobenzyl)oxy]benzyl}glycine] came in with a melting point of 206 °C. In the case of `O=C(NC(Cc1ccc(OCc2ccccc2)cc1)c1nnn[nH]1)c1cn2cc(-c3ccc(Cl)cc3)ccc2n1` (stereo not shown) [Example E14, N-[2-[4-(Benzyloxy)phenyl]-1-(1H-tetrazol-5-yl)ethyl]-6-(4-chlorophenyl)imidazo[1,2-a]pyridine-2-carboxamide] it was 241 °C; in that of `O=C(NC(Cc1ccc(OCc2ccccc2)cc1)c1nnn[nH]1)c1cn2nc(-c3ccc(Cl)cc3)ccc2n1` (stereo not shown) [Example E15, N-[2-[4-(Benzyloxy)phenyl]-1-(1H-tetrazol-5-yl)ethyl]-6-(4-chlorophenyl)imidazo[1,2-b]pyridazine-2-carboxamide], 186 °C; in that of `O=C(N[C@@H](Cc1ccc(OCC2CC2)cc1)C(=O)O)c1cn2cc(-c3ccc(Cl)cc3)ccc2n1` [Example E17, N-{[6-(4-Chlorophenyl)imidazo[1,2-a]pyridin-2-yl]carbonyl}-O-(cyclopropylmethyl)tyrosine], 276 °C.

In turn, `O=C(N[C@@H](Cc1ccc(OCc2ccccc2)cc1)C(=O)O)c1cn2cc(-c3cccnc3)ccc2n1` [Example E20, O-Benzyl-N-[(6-(pyridin-3-yl)imidazo[1,2-a]pyridine-2-yl)carbonyl]tyrosine] had a melting point of 244 °C. In the case of `O=C(N[C@@H](Cc1ccc(OCc2ccccc2)cc1)C(=O)O)c1cn2cc(-c3ccncc3)ccc2n1` [Example E21, O-Benzyl-N-[(6-(pyridine-4-yl)imidazo[1,2-a]pyridin-2-yl)carbonyl]tyrosine], the melting point is 268 °C. In the case of `O=C(NC(Cc1ccc(OCc2ccccc2)cc1)c1noc(=O)[nH]1)c1cn2cc(-c3ccc(Cl)cc3)ccc2n1` (stereo not shown) [Example E30, N-[2-[4-(Benzyloxy)phenyl]-1-(5-oxo-4,5-dihydro-1,2,4-oxadiazol-3-yl)ethyl]-6-(4-chlorophenyl)imidazo[1,2-a]pyridine-2-carboxamide] it was 167 °C.

Regarding `O=C(N[C@@H](Cc1ccc(OCc2ccoc2)cc1)C(=O)O)c1cn2cc(-c3ccc(Cl)cc3)ccc2n1` [Example E31, N-{[6-(4-Chlorophenyl)imidazo[1,2-a]pyridin-2-yl]carbonyl}-O-(3-furylmethyl)tyrosine], the melting point turned out to be 262 °C.

Take `O=C(N[C@@H](Cc1ccc(OCc2ccoc2)cc1)C(=O)O)c1cn2nc(-c3ccc(Cl)cc3)ccc2n1` [Example E32, N-{[6-(4-Chlorophenyl)imidazo[1,2-b]pyridazin-2-yl]carbonyl}-O-(3-furylmethyl)tyrosine]: the melting point turned out to be 220 °C. In the case of `O=C(N[C@@H](Cc1ccc(OCc2ccoc2)cc1)C(=O)O)c1cn2ccc(-c3ccc(Cl)cc3)cc2n1` [Example E33, N-{[7-(4-Chlorophenyl)imidazo[1,2-a]pyridin-2-yl]carbonyl}-O-(3-furylmethyl)tyrosine] it was 243 °C; in that of `O=C(N[C@@H](Cc1ccc(OCc2ccccc2)cc1)C(=O)O)c1cn2cc(/C=C/c3ccccc3)ccc2n1` [Example E34, O-Benzyl-N-({6-[(E)-2-phenylethenyl]imidazo[1,2-a]pyridin-2-yl}carbonyl)tyrosine], 262 to 263 °C. Turning to `Cc1cc2nc(C(=O)N[C@@H](Cc3ccc(OCc4ccccc4)cc3)C(=O)O)cn2cc1-c1ccc(Cl)cc1` [Example E35, O-Benzyl-N-{[6-(4-chlorophenyl)-7-methylimidazo[1,2-a]pyridin-2-yl]carbonyl}tyrosine], the melting point lay within 248 to 249 °C. In the case of `Cc1cc2nc(C(=O)NC(Cc3ccc(OCc4ccccc4)cc3)C(=O)O)cn2c(C)c1-c1ccc(Cl)cc1` (stereo not shown) [Example E36], the melting point fell in the range of 250 to 251 °C.
